Laboratory results as given in US11306092B2, “Amino indole compounds useful as TLR inhibitors” (BRISTOL-MYERS SQUIBB COMPANY, priority 2017, dated 2022).
Counter-ions that a name gives are not always drawn.

Assays:
Format in all cases: cell-based
[1] = molecular target: T1, human TLR8 (Homo sapiens, UniProt Q9NR97); assay: TLR8 inhibition reporter assay (HEK-Blue SEAP reporter); conditions: HEK-Blue cells overexpressing human TLR8; R848 15.9 μM; 22 hour incubation
T1 construct: host or cells: HEK-Blue cells
T1 sequence (Q9NR97 27-1041): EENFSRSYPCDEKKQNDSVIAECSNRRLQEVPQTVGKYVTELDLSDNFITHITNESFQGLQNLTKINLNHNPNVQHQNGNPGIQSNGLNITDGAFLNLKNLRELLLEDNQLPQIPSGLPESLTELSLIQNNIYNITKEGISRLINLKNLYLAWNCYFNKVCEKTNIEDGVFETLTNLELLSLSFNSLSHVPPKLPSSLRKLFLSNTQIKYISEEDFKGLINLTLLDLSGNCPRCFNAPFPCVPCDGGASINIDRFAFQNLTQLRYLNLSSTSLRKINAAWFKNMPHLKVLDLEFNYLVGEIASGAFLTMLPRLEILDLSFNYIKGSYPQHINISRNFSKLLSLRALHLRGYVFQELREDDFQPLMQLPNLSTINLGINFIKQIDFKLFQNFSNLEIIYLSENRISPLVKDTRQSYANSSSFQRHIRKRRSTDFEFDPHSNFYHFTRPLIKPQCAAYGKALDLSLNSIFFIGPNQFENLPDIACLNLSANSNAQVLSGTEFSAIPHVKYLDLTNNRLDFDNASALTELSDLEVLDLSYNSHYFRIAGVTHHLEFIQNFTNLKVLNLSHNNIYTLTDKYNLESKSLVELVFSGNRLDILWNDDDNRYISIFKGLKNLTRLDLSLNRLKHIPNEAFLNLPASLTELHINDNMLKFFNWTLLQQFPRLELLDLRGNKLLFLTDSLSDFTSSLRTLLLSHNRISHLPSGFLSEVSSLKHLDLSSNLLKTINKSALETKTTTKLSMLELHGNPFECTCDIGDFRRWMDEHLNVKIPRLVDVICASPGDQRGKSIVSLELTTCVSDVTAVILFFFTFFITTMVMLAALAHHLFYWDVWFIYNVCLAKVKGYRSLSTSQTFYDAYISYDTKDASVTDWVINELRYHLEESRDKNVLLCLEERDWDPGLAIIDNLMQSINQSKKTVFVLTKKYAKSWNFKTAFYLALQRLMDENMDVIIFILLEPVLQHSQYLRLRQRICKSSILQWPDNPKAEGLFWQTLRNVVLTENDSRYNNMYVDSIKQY
Method in brief: (§1)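 HEK-Blue cells overexpressing human TLR7, TLR8 or TLR9 carry a SEAP reporter driven by NF-κB/AP-1 sites. Compounds (0.05 nM–50 μM) were preincubated 30 min at room temperature, then cells were stimulated with gardiquimod 7.5 μM (TLR7), R848 15.9 μM (TLR8) or ODN2006 5 nM (TLR9) for 22 h at 37 °C.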

[2] = molecular target: T2, human TLR7 (Homo sapiens, UniProt Q9NYK1); assay: TLR7 inhibition reporter assay (HEK-Blue SEAP reporter); conditions: HEK-Blue cells overexpressing human TLR7; gardiquimod 7.5 μM; 22 hour incubation
T2 construct: host or cells: HEK-Blue cells
T2 sequence (Q9NYK1 27-1049): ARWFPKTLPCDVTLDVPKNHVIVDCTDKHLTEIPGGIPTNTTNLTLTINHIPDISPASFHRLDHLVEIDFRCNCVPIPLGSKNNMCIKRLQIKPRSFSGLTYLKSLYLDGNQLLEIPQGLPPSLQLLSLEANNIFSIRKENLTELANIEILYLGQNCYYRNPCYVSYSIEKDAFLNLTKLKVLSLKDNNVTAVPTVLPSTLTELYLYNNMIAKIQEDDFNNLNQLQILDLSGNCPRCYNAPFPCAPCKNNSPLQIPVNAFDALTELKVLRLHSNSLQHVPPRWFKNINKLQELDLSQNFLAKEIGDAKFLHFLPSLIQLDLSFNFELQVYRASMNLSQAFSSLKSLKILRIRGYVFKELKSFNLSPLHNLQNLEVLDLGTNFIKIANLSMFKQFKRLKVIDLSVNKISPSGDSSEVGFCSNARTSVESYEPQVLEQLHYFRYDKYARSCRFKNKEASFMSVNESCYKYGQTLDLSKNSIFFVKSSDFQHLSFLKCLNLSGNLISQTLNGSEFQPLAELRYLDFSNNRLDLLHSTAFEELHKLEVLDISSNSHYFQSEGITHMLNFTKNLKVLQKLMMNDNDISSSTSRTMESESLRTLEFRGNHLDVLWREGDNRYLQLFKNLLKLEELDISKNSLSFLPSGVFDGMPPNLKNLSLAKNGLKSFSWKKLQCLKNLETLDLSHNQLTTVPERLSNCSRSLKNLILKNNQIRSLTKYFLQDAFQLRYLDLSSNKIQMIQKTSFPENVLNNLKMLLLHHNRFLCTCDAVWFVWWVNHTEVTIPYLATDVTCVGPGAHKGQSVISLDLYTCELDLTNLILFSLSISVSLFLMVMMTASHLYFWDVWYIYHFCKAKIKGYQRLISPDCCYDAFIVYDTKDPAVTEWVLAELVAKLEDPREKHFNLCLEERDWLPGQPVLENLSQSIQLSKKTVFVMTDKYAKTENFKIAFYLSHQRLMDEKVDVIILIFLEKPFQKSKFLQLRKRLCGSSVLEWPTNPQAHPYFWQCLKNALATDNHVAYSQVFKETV
Method in brief: as §1

[3] = molecular target: T3, human TLR9 (Homo sapiens, UniProt Q9NR96); assay: TLR9 inhibition reporter assay (HEK-Blue SEAP reporter); conditions: HEK-Blue cells overexpressing human TLR9; ODN2006 5 nM; 22 hour incubation
T3 construct: host or cells: HEK-Blue cells
T3 sequence (Q9NR96 26-1032): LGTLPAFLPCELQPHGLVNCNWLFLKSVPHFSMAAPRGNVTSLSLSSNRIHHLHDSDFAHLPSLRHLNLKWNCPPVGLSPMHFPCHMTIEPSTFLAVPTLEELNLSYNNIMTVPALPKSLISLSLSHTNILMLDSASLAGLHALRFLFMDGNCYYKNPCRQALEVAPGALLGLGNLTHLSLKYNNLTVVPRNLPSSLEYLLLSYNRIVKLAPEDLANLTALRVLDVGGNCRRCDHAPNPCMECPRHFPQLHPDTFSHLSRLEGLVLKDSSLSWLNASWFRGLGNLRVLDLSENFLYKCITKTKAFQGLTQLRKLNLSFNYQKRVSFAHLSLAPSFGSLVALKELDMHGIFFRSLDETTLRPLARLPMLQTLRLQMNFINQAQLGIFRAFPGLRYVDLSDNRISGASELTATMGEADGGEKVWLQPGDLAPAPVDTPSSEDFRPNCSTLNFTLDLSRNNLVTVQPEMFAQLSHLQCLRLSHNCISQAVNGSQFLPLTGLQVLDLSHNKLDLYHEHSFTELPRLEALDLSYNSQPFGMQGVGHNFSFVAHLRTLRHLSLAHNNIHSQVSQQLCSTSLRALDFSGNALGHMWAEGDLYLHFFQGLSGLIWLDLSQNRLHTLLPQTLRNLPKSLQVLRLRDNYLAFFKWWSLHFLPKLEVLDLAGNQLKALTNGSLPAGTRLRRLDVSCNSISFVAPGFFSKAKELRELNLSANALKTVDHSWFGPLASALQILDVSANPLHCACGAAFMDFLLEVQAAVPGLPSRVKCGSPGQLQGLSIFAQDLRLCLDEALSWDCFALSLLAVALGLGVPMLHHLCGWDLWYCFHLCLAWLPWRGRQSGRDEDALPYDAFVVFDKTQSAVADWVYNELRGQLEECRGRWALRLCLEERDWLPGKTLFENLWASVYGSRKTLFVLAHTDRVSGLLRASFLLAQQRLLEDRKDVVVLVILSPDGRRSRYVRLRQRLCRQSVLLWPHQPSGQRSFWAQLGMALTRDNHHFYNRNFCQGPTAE
Method in brief: as §1

Structure (SMILES) | IC50 [1] [nM] | IC50 [2] [nM] | IC50 [3] [nM]
COc1ccc(-c2[nH]c3ccc(NC(=O)[C@@H](N)CCC(=O)O)cc3c2C(C)C)cc1OC [Example 24, (S)-4-amino-5-((2-(3,4-dimethoxyphenyl)-3-isopropyl-1H-indol-5-yl)amino)-5-oxopentanoic acid] | 216 | 1080 | > 50000
COc1ccc(-c2[nH]c3ccc(N4CCCCC4c4ccncc4)cc3c2C(C)C)cc1OC (stereo not drawn) [Example 113, 2-(3,4-dimethoxyphenyl)-3-isopropyl-5-(2-(pyridin-4-yl)piperidin-1-yl)-1H-indole] | 1280 | 1200 | > 50000
COc1ccc(-c2[nH]c3ccc(NC4CCC(N5CCN(C6CCN(C)CC6)CC5)CC4)cc3c2C(C)C)cc1OC (stereo not drawn) [Example 61, 2-(3,4-dimethoxyphenyl)-3-isopropyl-N-(4-(4-(1-methylpiperidin-4-yl)piperazin-1-yl)cyclohexyl)-1H-indol-5-amine] | 174 | 144 | 555
COc1ccc(-c2[nH]c3ccc(N4CCC(N5CCCC5)CC4)cc3c2C(C)C)cc1OC [Example 70, 2-(3,4-dimethoxyphenyl)-3-isopropyl-5-(4-(pyrrolidin-1-yl)piperidin-1-yl)-1H-indole] | 3.1 | 130 | 1700
COc1ccc(-c2[nH]c3ccc(N4CCC(C5CCN(Cc6cccn6C)CC5)CC4)cc3c2C(C)C)cc1OC [Example 96, 2-(3,4-dimethoxyphenyl)-3-isopropyl-5-(1′-((1-methyl-1H-pyrrol-2-yl)methyl)-[4,4′-bipiperidin]-1-yl)-1H-indole] | 1050 | 436 | 2840
COc1ccc(-c2[nH]c3ccc(N4CCC(N(C)C)C4=O)cc3c2C(C)C)cc1OC (stereo not drawn) [Example 4, 1-(2-(3,4-dimethoxyphenyl)-3-isopropyl-1H-indol-5-yl)-3-(dimethylamino)pyrrolidin-2-one] | 81 | 67 | 9210
COc1ccc(-c2[nH]c3ccc(N4CCC(C5c6ccccc6CCN5C)CC4)cc3c2C(C)C)cc1OC (stereo not drawn) [Example 119, 1-(1-(2-(3,4-dimethoxyphenyl)-3-isopropyl-1H-indol-5-yl)piperidin-4-yl)-2-methyl-1,2,3,4-tetrahydroisoquinoline] | 24 | 1400 | 2300
COc1ccc(-c2[nH]c3ccc(NC(=O)[C@H](N)CC(C)C)cc3c2C(C)C)cc1OC [Example 16, (R)-2-amino-N-(2-(3,4-dimethoxyphenyl)-3-isopropyl-1H-indol-5-yl)-4-methylpentanamide] | 47 | 2070 | 5760

Further lines, results first:

IC50 [1] [nM] | IC50 [2] [nM] | IC50 [3] [nM] | Structure (SMILES)
35 | 33 | 667 | CCN1CCC(OC2CCN(c3ccc4[nH]c(-c5ccc(OC)c(OC)c5)c(C(C)C)c4c3)CC2)CC1 [Example 190, 2-(3,4-dimethoxyphenyl)-5-(4-((1-ethylpiperidin-4-yl)oxy)piperidin-1-yl)-3-isopropyl-1H-indole]
14 | 53 | 4740 | COc1ccc(-c2[nH]c3ccc(N4CCNCC4)cc3c2C(C)C)cc1OC [Example 126, 2-(3,4-dimethoxyphenyl)-3-isopropyl-5-(piperazin-1-yl)-1H-indole, TFA Salt]
18600 | 15000 | 1410 | CCc1c(-c2ccnc3[nH]ncc23)[nH]c2ccc(N3CCC(OC4CCN(C(C)C)CC4)CC3)cc12 [Example 185, 4-(3-ethyl-5-(4-((1-isopropylpiperidin-4-yl)oxy)piperidin-1-yl)-1H-indol-2-yl)-1H-pyrazolo[3,4-b]pyridine]
6010 | 5640 | 684 | CCc1c(-c2ccnc3[nH]ncc23)[nH]c2ccc(N3CCN(C4CCN(C(C)C)CC4)CC3)cc12 [Example 159, 4-(3-ethyl-5-(4-(1-isopropylpiperidin-4-yl)piperazin-1-yl)-1H-indol-2-yl)-1H-pyrazolo[3,4-b]pyridine]
